The data set relates to rodent carcinogenicity bioassays, tumor incidence. In words: CCRIS carcinogenicity studies. Particulars: Dose: 0, Dose: 0. Put shortly:
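NCI-built, expert-reviewed records of carcinogenicity and related test outcomes (mutagenicity, tumor promotion/inhibition) compiled from published and report sources, historical span 1985-2011, not updated.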

Each structure is given as a SMILES string. Active and inactive are the calls of the source. The rule behind the calls is not given here.

The values below come from PubChem BioAssay AID1259411 (Chemical Carcinogenesis Research Information System (CCRIS), 2018).

Take `C[N+](=O)[O-]`: the carcinogen call was “inactive; negative” (Species: GUPPIE, Strain/Sex: FEMALE, Route: AQUARIUM WATER, 10, 30, 70 MG/L FOR 16 MO (STUDY DURATION: 16 MO), 10, 30, 70 MG/L FOR 16 MO (STUDY DURATION: 16 MO)); “inactive; negative” (Species: MEDAKA, Strain/Sex: FEMALE, Route: AQUARIUM WATER, 10, 20, 40 MG/L FOR 13 MO (STUDY DURATION: 13 MO), 10, 20, 40 MG/L FOR 13 MO (STUDY DURATION: 13 MO)); “inactive; negative” (Species: MEDAKA, Strain/Sex: MALE, Route: AQUARIUM WATER, 10, 20, 40 MG/L FOR 13 MO (STUDY DURATION: 13 MO), 10, 20, 40 MG/L FOR 13 MO (STUDY DURATION: 13 MO)); “active; positive” (Species: MOUSE, Strain/Sex: B6C3F1/FEMALE, Route: INHALATION, 188, 375, 750 PPM 6 HR/D 5 D/WK FOR 103 WK (STUDY DURATION: 105 WK), 188, 375, 750 PPM 6 HR/D 5 D/WK FOR 103 WK (STUDY DURATION: 105 WK), Tumor Site: Type of Lesion: HARDERIAN GLAND: ADENOMA, LIVER: HEPATOCELLULAR ADENOMA, LUNG: ALVEOLAR/BRONCHIOLAR ADENOMA, ALVEOLAR/BRONCHIOLAR CARCIN, Tumor Site: Type of Lesion: HARDERIAN GLAND: ADENOMA, LIVER: HEPATOCELLULAR ADENOMA, LUNG: ALVEOLAR/BRONCHIOLAR ADENOMA, ALVEOLAR/BRONCHIOLAR CARCIN); “active; positive” (Species: MOUSE, Strain/Sex: B6C3F1/MALE, Route: INHALATION, 188, 375, 750 PPM 6 HR/D 5 D/WK FOR 103 WK (STUDY DURATION: 105 WK), 188, 375, 750 PPM 6 HR/D 5 D/WK FOR 103 WK (STUDY DURATION: 105 WK), Tumor Site: Type of Lesion: HARDERIAN GLAND: CARCINOMA, ADENOMA, LUNG: ALVEOLAR/BRONCHIOLAR CARCINOMA); “active; positive” (Species: RAT, Strain/Sex: F344/FEMALE, Route: INHALATION, 94, 188, 375 PPM 6 HR/D 5 D/WK FOR 103 WK (STUDY DURATION: 104 WK), 94, 188, 375 PPM 6 HR/D 5 D/WK FOR 103 WK (STUDY DURATION: 104 WK), Tumor Site: Type of Lesion: MAMMARY GLAND: FIBROADENOMA, CARCINOMA). In addition, the carcinogen call (Species: RAT, Strain/Sex: F344/MALE, Route: INHALATION, 94, 188, 375 PPM 6 HR/D 5 D/WK FOR 103 WK (STUDY DURATION: 104 WK), 94, 188, 375 PPM 6 HR/D 5 D/WK FOR 103 WK (STUDY DURATION: 104 WK)) is “inactive; negative”; the carcinogen call (Species: RAT, Strain/Sex: LONG-EVANS/FEMALE, Route: INHALATION, 100, 200 PPM 7 HR/D 5 D/WK FOR 2 YR (STUDY DURATION: 2 YR), 100, 200 PPM 7 HR/D 5 D/WK FOR 2 YR (STUDY DURATION: 2 YR)) is “inactive; negative”; the carcinogen call (Species: RAT, Strain/Sex: LONG-EVANS/MALE, Route: INHALATION, 100, 200 PPM 7 HR/D 5 D/WK FOR 2 YR (STUDY DURATION: 2 YR), 100, 200 PPM 7 HR/D 5 D/WK FOR 2 YR (STUDY DURATION: 2 YR)) was “inactive; negative”.
Consider `ClC1=C(Cl)C2(Cl)C3C(Cl)C=CC3C1(Cl)C2(Cl)Cl` (stereo unspecified), for which the carcinogen call is, setting by setting: (Species: MOUSE, Strain/Sex: B6C3F1/FEMALE, Route: ORAL, 9, 18 PPM IN DIET, 9, 18 PPM IN DIET, Tumor Site: Type of Lesion: LIVER: HEPATOCELLULAR CARCINOMA) “active; positive”; (Species: MOUSE, Strain/Sex: B6C3F1/MALE, Route: ORAL, 6.1, 13.8 PPM IN DIET, TWA, 6.1, 13.8 PPM IN DIET, TWA, Tumor Site: Type of Lesion: LIVER: HEPATOCELLULAR CARCINOMA) “active; positive”; (Species: RAT, Strain/Sex: OSBORNE-MENDEL/FEMALE, Route: ORAL, 25.7, 51.3 PPM IN DIET FOR 80 WK (STUDY DURATION: 111 WK), 25.7, 51.3 PPM IN DIET FOR 80 WK (STUDY DURATION: 111 WK), Tumor Site: Type of Lesion: THYROID GLAND: FOLLICULAR CELL CARCINOMA OR ADENOMA) “equivocal”; (Species: RAT, Strain/Sex: OSBORNE-MENDEL/MALE, Route: ORAL, 38.9, 77.9 PPM IN DIET, TWA, 38.9, 77.9 PPM IN DIET, TWA) “inactive; negative”.
Take `C=CSCCC(N)C(=O)O` (stereo unspecified): the carcinogen call was “active; positive” (Species: RAT, Strain/Sex: F344/MALE, Route: INTRAPERITONEAL, 50-100 MG/KG 5 D/WK FOR 12 WK, STUDY DURATION: 25 MO, 50-100 MG/KG 5 D/WK FOR 12 WK, STUDY DURATION: 25 MO, Tumor Site: Type of Lesion: LIVER: HEPATOCELLULAR CARCINOMA) and “active; positive” (Species: RAT, Strain/Sex: F344/MALE, Route: ORAL, 0.05% IN METHYL-DEFICIENT DIET FOR 20 MO, Tumor Site: Type of Lesion: LIVER: HEPATOCELLULAR CARCINOMA).
Turning to `Cn1c(NO)nc2ncc(-c3ccccc3)cc21`, under “Species: RAT, Strain/Sex: ACI/SEG/MALE, Route: INTRAPERITONEAL, 50 UMOL/KG BW 2X/WK FOR 10 WK BEGINNING AT 3 D OF AGE (STUDY DURATION: 68 WK)”, the carcinogen call is “inactive; negative”.
